These results are taken from PubChem BioAssay (NCI).

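In this assay, cells in 96-well plates receive the compound at five concentrations for 48 hours. Endpoints are linearly interpolated between the surrounding concentrations. Definition used: TGI = concentration required for complete inhibition of growth.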 A value given as a limit tells only on which side of the number the result lay.

Among the test systems are M14 melanoma; RXF 393 renal; U251 CNS; SN12C renal; IGROV1 ovarian; A549 NSCLC; COLO 205 colon; UACC-62 melanoma.
Assay in all cases: NCI tumour cell line growth inhibition, 48 h

With `COc1cc(C2c3cc4c(cc3OC(Nc3ccc(C(=O)O)cc3)C2C)OCO4)cc(OC)c1OC` (stereo not drawn), the TGI with M14 melanoma is 31.8 µM; in the assay with RXF 393 renal, 92 µM; in the assay on U251 CNS, 30 µM; in the assay with SN12C renal, greater than 100 µM; in the assay with IGROV1 ovarian it was greater than 100 µM; with A549 NSCLC it was greater than 47.5 µM. Further, the TGI with COLO 205 colon is 0.518 µM; in the assay on UACC-62 melanoma, greater than 61.9 µM.
As for `Cc1c(CCOC=O)c(=O)[nH]c2nncn12`, the TGI with M14 melanoma, in the assay with RXF 393 renal, with U251 CNS, in the assay with SN12C renal, in the assay on IGROV1 ovarian and in the assay with A549 NSCLC was greater than 100 µM in each case. Besides, the TGI in the assay on COLO 205 colon and in the assay with UACC-62 melanoma was greater than 100 µM in each case.
On to `CC(N)C(C)Cc1ccccc1` (stereo not drawn), for which the TGI in the assay on M14 melanoma, in the assay with RXF 393 renal, in the assay on U251 CNS, in the assay on SN12C renal, in the assay on IGROV1 ovarian and in the assay on A549 NSCLC was greater than 100 µM throughout. In addition, the TGI in the assay with COLO 205 colon and with UACC-62 melanoma was greater than 100 µM each time.
Consider `O=C/C(=C(/Br)I)c1ccccc1`, for which the TGI in the assay with M14 melanoma was found to be 4.01 µM; in the assay with RXF 393 renal it was 7.2 µM; with U251 CNS, 13.7 µM; in the assay with SN12C renal it was 3.64 µM; with IGROV1 ovarian, 12.3 µM; with A549 NSCLC, 56.2 µM. Besides, the TGI was 14.3 µM in the assay on COLO 205 colon and 44.4 µM in the assay with UACC-62 melanoma.
Take `Cc1ccc(-c2c(C#N)c(S)n(NS(=O)(=O)c3ccc(C)cc3)c(=O)c2C#N)cc1`: the TGI in the assay on M14 melanoma is 81.5 µM; in the assay with RXF 393 renal it was 97.5 µM; with U251 CNS it was 37.7 µM; in the assay on SN12C renal, greater than 100 µM; with IGROV1 ovarian, 51.1 µM; in the assay on A549 NSCLC, greater than 100 µM. Besides, the TGI in the assay with COLO 205 colon and in the assay with UACC-62 melanoma was greater than 100 µM each time.
Turning to `CCc1n[nH]c(=O)n1/N=C/c1ccccc1Cl`, the TGI in the assay on M14 melanoma, in the assay with RXF 393 renal, in the assay with U251 CNS, in the assay with SN12C renal, in the assay on IGROV1 ovarian and in the assay with A549 NSCLC was greater than 100 µM throughout. Further, the TGI in the assay on COLO 205 colon and with UACC-62 melanoma was greater than 100 µM throughout.
On to `O=C1/C(=C\c2cccc(Oc3ccccc3)c2)S(=O)(=O)C(c2ccccc2)N1c1ccc(Cl)cc1` (stereo not drawn), for which the TGI with M14 melanoma was 26.9 µM; in the assay with RXF 393 renal it was 29.4 µM; with U251 CNS, 30.5 µM; in the assay with SN12C renal it was 29 µM; with IGROV1 ovarian, 33.2 µM; with A549 NSCLC, greater than 100 µM. For the same compound, the TGI with COLO 205 colon is 28.2 µM; in the assay on UACC-62 melanoma, 57 µM.
As to `Cc1cn(C2CCC(/C=N\O)O2)c(=O)[nH]c1=O` (stereo not drawn), the TGI in the assay with M14 melanoma, in the assay on RXF 393 renal, with U251 CNS, with SN12C renal, in the assay on IGROV1 ovarian and in the assay on A549 NSCLC was greater than 100 µM each time. Moreover, the TGI with COLO 205 colon and with UACC-62 melanoma was greater than 100 µM throughout.
`O=c1[nH]c(=O)n(C2CC(O)C(CO)O2)cc1OCCCc1ccccc1` (stereo not drawn): the TGI in the assay on M14 melanoma, with RXF 393 renal, in the assay with U251 CNS, with SN12C renal, in the assay with IGROV1 ovarian and with A549 NSCLC was greater than 100 µM in each case. Further, the TGI in the assay on COLO 205 colon and in the assay on UACC-62 melanoma was greater than 100 µM throughout.
With `CC(C)(C)N(Cc1ccc2c(c1)OCO2)C(=O)/C=C\S(=O)c1ccccc1` (stereo not drawn), the TGI in the assay with M14 melanoma amounted to 8.2 µM; in the assay with RXF 393 renal it was 8.22 µM; with U251 CNS it was 14.9 µM; with SN12C renal, 9.03 µM; with IGROV1 ovarian, 13.3 µM; in the assay with A549 NSCLC, 18.4 µM. The TGI in the assay on COLO 205 colon stood at 8.75 µM; in the assay on UACC-62 melanoma, 13.6 µM.
As to `CON(C)C(C#N)=C(C#N)C#N`, the TGI in the assay with M14 melanoma, in the assay on RXF 393 renal, with U251 CNS, with SN12C renal, with IGROV1 ovarian and in the assay on A549 NSCLC was greater than 10 µM in each case. Moreover, the TGI in the assay with COLO 205 colon and in the assay with UACC-62 melanoma was greater than 10 µM each time.
Turning to `CN1CN(c2ccccc2)C2(CCN(CCCSc3ccccc3NC(=O)/C=C/c3ccccc3)CC2)C1=O`, the TGI was 3.89 µM in the assay on M14 melanoma; 31.9 µM in the assay on RXF 393 renal; 22.5 µM in the assay with U251 CNS; 15.1 µM with SN12C renal; 6.61 µM with IGROV1 ovarian; greater than 87.3 µM with A549 NSCLC. In addition, the TGI in the assay with COLO 205 colon was determined as 4.53 µM; with UACC-62 melanoma, 6.37 µM.
With `CC1(c2nc3cc(Cl)c(Cl)cc3[nH]2)CCC(CO)C(C)(C)O1` (stereo not drawn), the TGI with M14 melanoma was 92.5 µM; in the assay with RXF 393 renal, greater than 100 µM; in the assay on U251 CNS, greater than 100 µM; in the assay on SN12C renal it was greater than 100 µM; in the assay on IGROV1 ovarian, 77.6 µM; in the assay with A549 NSCLC, greater than 100 µM. The TGI in the assay with COLO 205 colon was found to be 73.8 µM; in the assay with UACC-62 melanoma, 39.2 µM.
On to `COc1cc(-c2oc3c(OC)c(O)c(OC)c(O)c3c(=O)c2OC)cc(O)c1OC`, for which the TGI with M14 melanoma was greater than 100 µM; with RXF 393 renal, 79.4 µM; in the assay on U251 CNS, greater than 100 µM; in the assay on SN12C renal it was greater than 100 µM; in the assay with IGROV1 ovarian, greater than 100 µM; in the assay with A549 NSCLC, greater than 100 µM. The values for the TGI with COLO 205 colon and in the assay on UACC-62 melanoma were greater than 100 µM and 71.8 µM, respectively.
For `S=C(N/N=C(/c1ccccc1)c1ccccn1)Nc1ccccc1Cl`, the TGI was 2.89 µM with M14 melanoma; 4.24 µM in the assay on RXF 393 renal; 10.9 µM with U251 CNS; 14.9 µM with SN12C renal; 7.84 µM with IGROV1 ovarian; 13 µM in the assay on A549 NSCLC. For the same compound, the TGI in the assay with COLO 205 colon was 2.31 µM; in the assay on UACC-62 melanoma it was 14.6 µM.
As for `CCCCn1c(C)c(C(=O)OCC)s/c1=N/Nc1nc2ccccc2nc1-c1ccccc1`, the TGI in the assay with M14 melanoma, with RXF 393 renal, with U251 CNS, in the assay on SN12C renal, in the assay with IGROV1 ovarian and in the assay with A549 NSCLC was greater than 100 µM throughout. Moreover, the TGI in the assay with COLO 205 colon and in the assay on UACC-62 melanoma was greater than 100 µM throughout.
